Assay results from PMC12807480, “Protectin DX resolves fracture-induced postoperative pain in mice via neuronal signaling and GPR37-activated macrophage efferocytosis” (The Journal of Clinical Investigation, 2026).

Assays:
GPR37 [1] = molecular target: T1, GPR37 (Homo sapiens, UniProt O15354); test: Ca2+ imaging in HEK293T cells expressing human GPR37 versus mock; lipid overlay dot blot with GPR37-HEK293T lysate; type: cell-based
T1 sequence (O15354 27-613): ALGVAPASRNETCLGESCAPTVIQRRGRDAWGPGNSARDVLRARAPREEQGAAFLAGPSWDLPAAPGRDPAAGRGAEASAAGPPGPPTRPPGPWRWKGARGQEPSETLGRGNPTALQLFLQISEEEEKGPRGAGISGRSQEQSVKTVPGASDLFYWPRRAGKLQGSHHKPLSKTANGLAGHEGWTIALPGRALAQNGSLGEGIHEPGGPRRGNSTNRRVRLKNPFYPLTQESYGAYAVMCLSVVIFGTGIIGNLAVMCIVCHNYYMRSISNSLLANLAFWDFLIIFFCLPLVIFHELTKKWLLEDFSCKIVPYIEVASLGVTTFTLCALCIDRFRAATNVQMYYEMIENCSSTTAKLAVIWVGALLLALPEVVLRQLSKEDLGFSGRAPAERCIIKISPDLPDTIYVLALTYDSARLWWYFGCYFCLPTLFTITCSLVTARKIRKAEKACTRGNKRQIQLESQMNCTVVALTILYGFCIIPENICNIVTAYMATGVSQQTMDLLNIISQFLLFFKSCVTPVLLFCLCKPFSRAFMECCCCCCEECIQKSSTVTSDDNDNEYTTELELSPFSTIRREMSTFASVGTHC

GPR37 [2] = molecular target: T1, GPR37; test: lipid overlay dot blot: ligand-coated PVDF membrane with lysates of HEK293T cells with and without GPR37

EC50 (GPR37 [1])	SMILES	lipid overlay dot blot: ligand-coated PVDF membrane with lysates of HEK293T cell (GPR37 [2])
23.5 nM	CC/C=C\C[C@H](O)/C=C/C=C\C=C\[C@@H](O)C/C=C\C/C=C\CCC(=O)O [PDX, Protectin DX]	
	CC/C=C\C[C@H](O)\C=C/C=C/C=C/[C@H](O)C/C=C\C/C=C\CCC(=O)O [NPD1, neuroprotectin D1]	Lipid overlay assays further confirmed direct binding of PDX and NPD1 to GPR37
